Tested on: C57 BL/6J-ob/ob mice
Experiment: test for hypoglycemic effect in ob/ob mice
Type: in vivo
Conditions: plasma glucose on day 5, ob/ob mice dosed daily for five days, 50 mg/kg in 0.25% w/v methyl cellulose; value given as an example (e.g.)
Excerpt: The present compounds of the formula (I) are readily adapted to clinical use as hypoglycemic or hypocholesterolemic agents. The activity required for this former clinical use is defined by the test for hypoglycemic effect in ob/ob mice by the following procedure:
Five to eight week old C57 BL/6J-ob/ob mice (obtained from Jackson Laboratory, Bar Harbor, Maine) were housed five per cage under standard animal care practices. After a one week acclimation period, the animals were weighed and 25 microliters of blood was collected via an ocular bleed prior to any treatment. The blood sample was immediately diluted 1:5 with saline containing 2.5 mg/ml sodium fluoride and 2% sodium heparin, and held on ice for metabolite analysis. […] The supernatant was analyzed for glucose, for example, by the ABA 200 Bichromatic Analyzer™, using the A-gent™ glucose UV reagent system* (hexokinase method) using 20, 60 and 100 mg/dl standards. Plasma glucose was then calculated by the equation, Plasma glucose (mg/dl) = Sample value x 5 x 1.67 = 8.35 x Sample value [formula] where 5 is the dilution factor and 1.67 is the plasma hematocrit adjustment (assuming the hematocrit is 40%). ™A registered trademark of Abbott Laboratories, Diagnostics Division, 820 Mission Street, So. […]

CC1(COc2ccc(CC3SC(=O)NC3=O)cc2)CCCCC1 (stereo not shown) [positive control, ciglitazone]
glucose levels: ~130 mg/dL

Reference: patent EP0332332B1, “Hypoglycemic thiazolidinedione derivatives” (PFIZER INC., priority 1988, dated 1989)
